Like-named read-outs stand apart in the source and are kept apart here.
Tests used:
[1] = system: human breast cancer MCF-7 cells; assay: Clonogenic survival assay, drug alone (cytotoxicity) in MCF-7 cells; format: cell-based; settings: 2 μg/ml for 1 h, read graphically from FIG. 2
Method: (§1) Clonogenic Survival Assay. […] 18–24 h prior to experimental studies.
(§2) Colonies consisting of >50 cells were counted.

[2] = system: TOP1 mutant DC3F/C10 cells; assay: Radiosensitization in DC3F/C10 cells (clonogenic survival with radiation); format: cell-based, Chinese hamster; settings: for Radiation Dose (Gy) at 10% Survival / SER / Induction of RS: DC3F/C10 cells; for Resistance of DC3F/C-10 cells to induction of RS: in comparison to the DC3F cells, Table 4; for Induction of RS: concentrations as high as 10 μg/ml (data not shown)
Method: as §1, §2
(§3) Irradiation of Cells. Drug-treated and control cells in medium were irradiated using a cobalt-60 source (Eldorado 8; Theratronics, Canada) at a dose rate of 105 cGy/min.
(§4) Analysis of Survival Curves. Survival curves were corrected for cytotoxicity induced by drug alone treatment. Sensitization enhancement ratios (SERs) and standard deviations for survival curves were determined at 10% cell survival. Each SER was calculated by dividing the radiation dose to induce 10% cell survival in the absence of radiosensitizer with the radiation dose to induce 10% cell survival in the presence of radiosensitizer.

[3] = system: human MCF-7, Chinese hamster CHO and DC3F cells; assay: Cytotoxicity (LD50) by clonogenic survival assays in three cell lines; format: cell-based; settings: 1 h drug treatment; MCF-7, CHO and DC3F cells
Method: as §1, §2
We investigated the relationship between the TOP1-mediated DNA damage and the cytotoxic and radiosensitizing effects induced by the six INDO derivatives. The cytotoxicity of various INDO derivatives was determined by exposing logarithmically growing human MCF-7, Chinese hamster CHO and DC3F cells to the individual drug for 1 hr, followed by clonogenic survival assays.

[4] = system: Chinese Hamster lung fibroblast DC3F cells; assay: Clonogenic survival assay, cytotoxicity in DC3F cells
Method: (§5) Clonogenic Survival Assay. For a typical clonogenic survival experiment, stock cultures of exponentially growing cells were trypsinized, rinsed, and plated (5×10^5 cells per dish for DC3F and DC3F/C-10 cells; 1×10^6 cells for MCF-7 cells) into 100-mm petri dishes and incubated at 37° C. 18–24 h prior to experimental studies.
(§6) Following various experimental protocols with drug incubation and irradiation, cells were trypsinized, rinsed, counted, and plated for […] colony formation. Depending on the anticipated survival level, 10^2 to 10^5 cells were plated per dose point. When higher cell numbers were plated, large petri dishes were used to avoid possible cell-density effect (100-mm instead of 60-mm petri dishes for cell number≧5×10^4). Depending on the treatment protocols, an equivalent amount of DMSO was added into each of the control radiation alone dishes (final DMSO concentration <0.1%).
(§7) Following seven to fourteen days of incubation, colonies were fixed with methanol/acetic acid (3:1), stained with crystal violet. Colonies consisting of >50 cells were counted. All survival points were done in triplicate, and experiments were conducted a minimum of two times. Error bars shown in the figures represent standard deviations (SD) and are shown when larger than the symbol.
(§8) The DC3F/C-10 cell line was selected from the Chinese Hamster lung fibroblast DC3F cell line in the presence of 1 μM of camptothecin (Albright, N., Radiat. Res., 112:331–340 (1987), and Chen, Y. N., J. Biol. Chem., 265:10073–10080 (1990)). […] In an attempt to determine the importance of TOP1 in mediating the cytotoxic and radiosensitizing effects by INDO derivatives, clonogenic survival assays were performed in DC3F and DC3F/C10 cells.

DC3F cells = assay: Radiosensitization in DC3F cells (clonogenic survival with radiation); format: cell-based, Chinese hamster; settings: for Induction of RS: concentrations as high as 10 μg/ml (data not shown)
Method: as §1, §2, §3, §4

[5] = system: camptothecin-resistant, TOP1 mutant DC3F/C-10 cells; settings: for Cytotoxic effect: DC3F/C10 cells
Method: as §5, §6, §7, §8

[6] = system: Chinese hamster CHO cells; assay: Radiosensitization in CHO cells (preliminary, data not shown); format: cell-based; settings: non-cytotoxic concentrations of 2 μg/ml and 10 μg/ml
[7] = target: camptothecin-resistant TOP1 mutant F361S (Homo sapiens, UniProt P11387, F361S); settings: published work; cited from earlier work
Sequence of camptothecin-resistant TOP1 mutant F361S (P11387 whole entry F361S): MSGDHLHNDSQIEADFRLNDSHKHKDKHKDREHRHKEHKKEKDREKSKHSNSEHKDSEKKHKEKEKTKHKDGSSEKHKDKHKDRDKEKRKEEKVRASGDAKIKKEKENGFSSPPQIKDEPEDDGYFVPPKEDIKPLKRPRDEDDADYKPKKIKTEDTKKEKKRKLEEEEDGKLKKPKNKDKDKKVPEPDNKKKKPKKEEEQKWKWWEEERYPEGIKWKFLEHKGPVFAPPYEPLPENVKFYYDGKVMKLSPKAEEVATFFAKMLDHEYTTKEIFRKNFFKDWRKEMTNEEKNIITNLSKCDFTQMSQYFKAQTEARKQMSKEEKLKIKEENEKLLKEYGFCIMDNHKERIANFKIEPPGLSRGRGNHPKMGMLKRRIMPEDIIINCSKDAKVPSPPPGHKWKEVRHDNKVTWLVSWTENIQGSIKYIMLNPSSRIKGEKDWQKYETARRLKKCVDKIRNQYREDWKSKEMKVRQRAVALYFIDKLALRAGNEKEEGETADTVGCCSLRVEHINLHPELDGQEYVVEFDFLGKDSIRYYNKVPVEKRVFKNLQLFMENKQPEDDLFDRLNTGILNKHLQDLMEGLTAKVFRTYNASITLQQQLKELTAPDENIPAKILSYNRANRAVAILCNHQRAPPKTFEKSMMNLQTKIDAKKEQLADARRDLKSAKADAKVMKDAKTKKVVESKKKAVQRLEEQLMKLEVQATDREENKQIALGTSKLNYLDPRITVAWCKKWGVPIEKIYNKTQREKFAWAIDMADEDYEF

Row | Compound | Percent of cell survival without RT [1] [%] | Radiation Dose (Gy) at 10% Survival ([2]; 5.0 μg/ml) [Gy] | SER ([2]; 5.0 μg/ml) | Resistance of DC3F/C-10 cells to induction of RS [2] | Cytotoxicity (based on LD50) [3] | Radiation Dose (Gy) at 10% Survival (DC3F cells; 5.0 μg/ml) [Gy] | SER (DC3F cells; 5.0 μg/ml) | Cytotoxic effect [5] | Cytotoxic effect ([4]; DC3F cells) | RR (relative resistance) [5] | Relative resistance of DC3F/C10 cells to the cytotoxic effect [5] | Induction of RS [2] | Induction of RS (DC3F cells) | other results
1 | CO[C@H]1[C@H](O)[C@@H](O)[C@H](n2c3c(Cl)cccc3c3c4c(c5c6cccc(Cl)c6[nH]c5c32)C(=O)NC4=O)O[C@@H]1CO [F1, rebeccamycin] | 94 ± 8 | 4.8 | 1.1 | showed resistance to induction of RS | ++ (modest activity, LD50 >4 μg/ml but ≦10 μg/ml) | 4.6 | 1.3 | lack of cytotoxic effect |  |  |  |  |  | Radiation Dose (Gy) at 10% Survival ([2]; 25 μg/ml): 4.5 Gy; SER ([2]; 25 μg/ml): 1.2; Cytotoxic effect [4]: lack of cytotoxic effect; Radiation Dose (Gy) at 10% Survival (DC3F cells; 1.0 μg/ml): 4.9 Gy; SER (DC3F cells; 1.0 μg/ml): 1.2
2 | COC1C(CO)OC(n2c3ccccc3c3c4c(c5c6ccccc6[nH]c5c32)C(=O)OC4=O)C(O)C1O (stereo not shown) [F5] | 98 ± 2 |  |  |  | + (low activity, LD50 >10 μg/ml) |  |  | lack of cytotoxic effect | lack of cytotoxic effect |  |  |  |  | Induction of RS [6]: potent inducer of RS
3 | COC1C(CO)OC(n2c3ccccc3c3c4c(c5c6ccccc6[nH]c5c32)C(=O)N(O)C4=O)C(O)C1O (stereo not shown) [F7] | 98 ± 2 | 5.2 | 1.0 | showed resistance to induction of RS | ++ (modest activity, LD50 >4 μg/ml but ≦10 μg/ml) | 3.9 | 1.5 |  |  | >5.0 | more than 5 fold |  |  | Cross-resistance of mutant TOP1 [7]: cross-resistant; Radiation Dose (Gy) at 10% Survival ([2]; 10 μg/ml): 4.9 Gy; SER ([2]; 10 μg/ml): 1.1; Radiation Dose (Gy) at 10% Survival ([2]; 20 μg/ml): 4.1 Gy; SER ([2]; 20 μg/ml): 1.3; Radiation Dose (Gy) at 10% Survival (DC3F cells; 2.5 μg/ml): 4.6 Gy; SER (DC3F cells; 2.5 μg/ml): 1.3; Radiation Dose (Gy) at 10% Survival (DC3F cells; 10 μg/ml): 3.6 Gy; SER (DC3F cells; 10 μg/ml): 1.7
4 | COC1C(CO)OC(n2c3c(Cl)cccc3c3c4c(c5c6cccc(Cl)c6[nH]c5c32)C(=O)N(C)C4=O)C(O)C1O (stereo not shown) [F43] | 95 ± 5 |  |  |  | + (low activity, LD50 >10 μg/ml) |  |  | lack of cytotoxic effect | lack of cytotoxic effect |  |  |  |  | 
5 | COC1C(CO)OC(n2c3ccccc3c3c4c(c5c6ccccc6[nH]c5c32)C(=O)N(C)C4=O)C(O)C1O (stereo not shown) [F44] | 100 ± 2 |  |  |  | +++ (high activity, LD50 ≦4 μg/ml) |  |  |  |  | 2.5 | 2.5 fold | incapable of inducing RS | incapable of inducing RS | 
6 | COC1C(CO)OC(n2c3ccccc3c3c4c(c5c6ccccc6[nH]c5c32)C(=O)NC4=O)C(O)C1O (stereo not shown) [F71] | 85 ± 10 |  |  |  | +++ (high activity, LD50 ≦4 μg/ml) |  |  |  |  | 2.7 | 2.7 fold | incapable of inducing RS | incapable of inducing RS | 
